Data taken from patent US20220363665A1, “QUINOLINE COMPOUNDS FOR THE TREATMENT OF AUTOIMMUNE DISEASE” (Hoffmann-La Roche Inc., priority 2019, published 2022).

What was measured:
Assay type in all cases: in vitro ADME
CYP2D6 = molecular target: T1, CYP2D6 (Homo sapiens, UniProt P10635); assay: CYP inhibition assay in human liver microsome, CYP2D6; details: HLM, dextromethorphan substrate; for inhibition at 10 min, 10 µM: human, liver microsomes, probe dextromethorphan, read-out: CYP inhibition % @10 uM (2D6)
T1 construct: tissue BD-Gentest 452117; host or cells: human liver microsomes
T1 sequence (P10635 whole entry): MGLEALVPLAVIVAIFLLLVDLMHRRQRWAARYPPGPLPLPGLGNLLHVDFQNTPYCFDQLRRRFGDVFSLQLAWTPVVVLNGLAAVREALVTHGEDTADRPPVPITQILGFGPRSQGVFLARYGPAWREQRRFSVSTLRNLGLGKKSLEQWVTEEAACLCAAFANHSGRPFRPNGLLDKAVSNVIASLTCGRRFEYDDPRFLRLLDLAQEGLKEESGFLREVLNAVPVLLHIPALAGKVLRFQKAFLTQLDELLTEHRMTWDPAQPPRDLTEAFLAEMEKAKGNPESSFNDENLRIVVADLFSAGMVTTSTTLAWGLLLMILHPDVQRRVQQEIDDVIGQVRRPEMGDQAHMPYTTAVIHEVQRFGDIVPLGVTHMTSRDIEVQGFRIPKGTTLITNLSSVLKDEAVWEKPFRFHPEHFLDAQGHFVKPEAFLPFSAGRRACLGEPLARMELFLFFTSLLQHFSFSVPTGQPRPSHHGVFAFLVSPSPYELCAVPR
Description: (§1) This is a high throughput screening assay used for assessment of reversible inhibition of CYP2C9, CYP2D6, and CYP3A4 activity of test compounds in human liver microsome (HLM) in early discovery stage.
(§2) 10 mM DMSO stock solutions of test compounds were diluted in DMSO to generate 2 mM intermediate stock solution. 250 nL of intermediate stock solution were transferred in duplicate into 3 separate 384 well microtitre plates (assay-ready plates). A mixture of HLM and each substrate was made up. 45 μL of HLM substrate mix was then transferred to each well of an assay ready plate and mixed. The negative (solvent) and positive controls (standard inhibitor for each CYP) were included in each assay ready plate. The assay ready plate was warmed to 37° C. in an incubator over 10 minutes. 5 μL pre-warmed NADPH regenerating system was added to each incubation well to start the reaction. Final incubation volume was 50 μL. The assay plate then was placed back in the 37° C. incubator. After 5 minutes incubation (10 minutes for CYP2D6), incubates were quenched by addition of 50 μL quench reagent containing internal standards (400 ng/mL 13C6-4′-OH-Diclofenac, 20 ng/mL D3-Dextrorphan and 20 ng/mL D4-1′OH-Midazolam in acetonitrile). The supernatants were collected for RapidFire/MS/MS analysis.
(§3) RapidFire online solid phase extraction/sample injection system (Agilent) coupled with API4000 triple quadrupole mass spectrometer (AB Sciex) were used for sample analysis. The mobile phase composed of acetonitrile and water supplemented with 0.1% formic acid. A C4 solid phase extraction cartridge is used for sample separation. MS detection is achieved in positive ion MRM mode.
(§4) Peak areas for substrate, metabolite and internal standard are determined using the
(§5) RapidFire integrator software (version 3.6.12009.12296). Peak area ratios (PAR) of metabolite and internal standard (stable-labelled metabolite) are then calculated. The measurement window for each experiment is then defined:
(§6) PAR (0% activity)=average PAR for all incubations containing concentrated inhibitor;
(§7) Par (100% activity)=average PAR for all incubations containing no inhibitor (DMSO controls);
(§8) % Activity (test inhibitor) =[PAR(test inhibitor)-PAR(0% activity)][PAR(100% activity)-PAR(0% activity)];
(§9) % Inhibition (test inhibitor)=100-% Activity (test inhibitor).
(§10) Percentage inhibition data are then reported, in duplicate, for the 3 CYP enzymes.

[1] = Human microsome stability assay; details: 1 μM test compound, 0.5 mg/mL protein
Description: The human microsomal stability assay is used for early assessment of metabolic stability of a test compound in human liver microsomes.
Human liver microsomes (Cat. NO.: 452117, Corning, USA; Cat. NO.: H2610, Xenotech, USA) were preincubated with test compound for 10 minutes at 37° C. in 100 mM potassium phosphate buffer, pH 7.4. The reactions were initiated by adding NADPH regenerating system. The final incubation mixtures contained 1 μM test compound, 0.5 mg/mL liver microsomal protein, 1 mM MgCl2, 1 mM NADP, 1 unit/mL isocitric dehydrogenase and 6 mM isocitric acid in 100 mM potassium phosphate buffer, pH 7.4. After incubation times of 0, 3, 6, 9, 15 and 30 minutes at 37° C., 300 μL of cold ACN (including internal standard) was added to 100 μL incubation mixture to terminate the reaction. Following precipitation and centrifugation, the amount of compound remaining in the samples were determined by LC-MS/MS. Controls of no NADPH regenerating system at zero and 30 minutes were also prepared and analyzed. The results were categorized as: low (<7.0 mL/min/kg), medium (7.0˜16.2 mL/min/kg) and high (16.2-23.2 mL/min/kg).

CYP2C9 = molecular target: T2, CYP2C9 (Homo sapiens, UniProt P11712); assay: CYP inhibition assay in human liver microsome, CYP2C9; details: HLM, diclofenac substrate; for inhibition at 5 min, 10 µM: human, liver microsomes, probe diclofenac, read-out: CYP inhibition % @10 uM (2C9)
T2 construct: tissue BD-Gentest 452117; host or cells: human liver microsomes
T2 sequence (P11712 whole entry): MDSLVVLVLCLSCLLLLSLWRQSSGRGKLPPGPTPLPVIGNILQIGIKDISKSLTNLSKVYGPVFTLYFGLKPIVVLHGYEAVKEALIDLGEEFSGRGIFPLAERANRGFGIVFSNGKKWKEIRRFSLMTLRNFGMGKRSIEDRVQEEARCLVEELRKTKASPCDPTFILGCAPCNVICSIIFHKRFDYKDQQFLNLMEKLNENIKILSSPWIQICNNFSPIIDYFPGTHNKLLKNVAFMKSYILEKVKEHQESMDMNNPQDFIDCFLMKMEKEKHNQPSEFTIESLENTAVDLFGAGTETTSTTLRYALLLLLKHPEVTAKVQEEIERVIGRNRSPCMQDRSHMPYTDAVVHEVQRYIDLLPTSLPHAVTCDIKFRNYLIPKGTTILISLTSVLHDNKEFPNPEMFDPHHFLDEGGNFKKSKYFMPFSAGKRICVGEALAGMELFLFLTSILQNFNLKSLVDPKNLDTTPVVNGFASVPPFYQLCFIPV
Description: as §1, §2, §3, §4, §5, §6, §7, §8, §9, §10

## C[C@@H]1CN(c2ccc(C(F)(F)F)c3ncccc23)C[C@H](C(=O)NC2CC3CCCC(C2)N3)O1 (single isomer, unassigned) [Example 34A]
CYP2D6
  CYP inhibition % @10 uM (2D6): 3%
[1]
  clearance in human liver microsomes: 6.24 mL/min/kg
CYP2C9
  CYP inhibition % @10 uM (2C9): −6%

## C[C@@H]1CN(c2ccc(C(F)(F)F)c3ncccc23)C[C@H](C(=O)NC2CC3CCCC(C2)N3)O1 (single isomer, unassigned) [Example 34B]
CYP2D6
  CYP inhibition % @10 uM (2D6): −10%
[1]
  clearance in human liver microsomes: 6.17 mL/min/kg
CYP2C9
  CYP inhibition % @10 uM (2C9): −8%

## C[C@@H]1CN(c2ccc(C(F)(F)F)c3ncccc23)C[C@H](C(=O)NC2CC3CNCC32)O1 (single isomer, unassigned) [Example 49B]
CYP2D6
  CYP inhibition % @10 uM (2D6): −12%
[1]
  clearance in human liver microsomes: 6.15 mL/min/kg
CYP2C9
  CYP inhibition % @10 uM (2C9): −2%

## C[C@@H]1CN(c2ccc(C(F)(F)F)c3ncccc23)C[C@H](C(=O)NC2CC3CNCC32)O1 (single isomer, unassigned) [Example 49C]
CYP2D6
  CYP inhibition % @10 uM (2D6): 8%
[1]
  clearance in human liver microsomes: 6.15 mL/min/kg
CYP2C9
  CYP inhibition % @10 uM (2C9): 11%

## C[C@@H]1CN(c2ccc(C(F)(F)F)c3ncccc23)C[C@H](C(=O)NC2CCN(C)CC2)O1 [Example 5, (2R,6R)-6-methyl-N-(1-methyl-4-piperidyl)-4-[8-(trifluoromethyl)-5-quinolyl]morpholine-2-carboxamide]
CYP2D6
  inhibition at 10 min, 10 µM: 16%
[1]
  clearance in human liver microsomes: 6.15 mL/min/kg
CYP2C9
  inhibition at 5 min, 10 µM: -1%

## C[C@@H]1CN(c2ccc(C(F)(F)F)c3ncccc23)C[C@H](C(=O)NCC(C)(C)N)O1 [Example 6, (2R,6R)-N-(2-amino-2-methyl-propyl)-6-methyl-4-[8-(trifluoromethyl)-5-quinolyl]morpholine-2-carboxamide]
CYP2D6
  inhibition at 10 min, 10 µM: 13%
[1]
  clearance in human liver microsomes: 6.15 mL/min/kg
CYP2C9
  inhibition at 5 min, 10 µM: -13%

## C[C@@H]1CN(c2ccc(C(F)(F)F)c3ncccc23)C[C@H](C(=O)NC2CCCNCC2)O1 (stereo partly drawn) [Example 8, (2R,6R)-N-(azepan-4-yl)-6-methyl-4-[8-(trifluoromethyl)-5-quinolyl]morpholine-2-carboxamide]
CYP2D6
  inhibition at 10 min, 10 µM: 10%
[1]
  clearance in human liver microsomes: 6.15 mL/min/kg
CYP2C9
  inhibition at 5 min, 10 µM: -8%

## C[C@@H]1CN(c2ccc(C(F)(F)F)c3ncccc23)C[C@H](C(=O)N2CCC(N)C2)O1 (stereo partly drawn) [Example 10, (3-aminopyrrolidin-1-yl)-[(2R,6R)-6-methyl-4-[8-(trifluoromethyl)-5-quinolyl]morpholin-2-yl]methanone]
CYP2D6
  inhibition at 10 min, 10 µM: 26%
[1]
  clearance in human liver microsomes: 6.15 mL/min/kg
CYP2C9
  inhibition at 5 min, 10 µM: 11%

## C[C@@H]1CN(c2ccc(C(F)(F)F)c3ncccc23)C[C@H](C(=O)N2CCC(N)CC2)O1 [Example 12, (4-amino-1-piperidyl)-[(2R,6R)-6-methyl-4-[8-(trifluoromethyl)-5-quinolyl]morpholin-2-yl]methanone]
CYP2D6
  inhibition at 10 min, 10 µM: 7%
[1]
  clearance in human liver microsomes: 6.15 mL/min/kg
CYP2C9
  inhibition at 5 min, 10 µM: 12%

## Cc1ccc(N2C[C@@H](C)O[C@@H](C(=O)NC3CCN(C)CC3)C2)c2cccnc12 [Example 16, (2R,6R)-6-methyl-N-(1-methyl-4-piperidyl)-4-(8-methyl-5-quinolyl)morpholine-2-carboxamide]
CYP2D6
  inhibition at 10 min, 10 µM: 5%
[1]
  clearance in human liver microsomes: 6.15 mL/min/kg
CYP2C9
  inhibition at 5 min, 10 µM: -8%

## Cc1ccc(N2C[C@@H](C)O[C@@H](C(=O)NCC3CN(C)CCO3)C2)c2cccnc12 (stereo partly drawn) [Example 17, (2R,6R)-6-methyl-N-[(4-methylmorpholin-2-yl)methyl]-4-(8-methyl-5-quinolyl)morpholine-2-carboxamide]
CYP2D6
  inhibition at 10 min, 10 µM: 3%
[1]
  clearance in human liver microsomes: 6.15 mL/min/kg
CYP2C9
  inhibition at 5 min, 10 µM: -4%

## C[C@H]1C[C@@H](N)CN(c2ccc(Cl)c3ncccc23)C1 [Example 23, (3R,5S)-1-(8-chloro-5-quinolyl)-5-methyl-piperidin-3-amine]
CYP2D6
  inhibition at 10 min, 10 µM: 35%
[1]
  clearance in human liver microsomes: 6.15 mL/min/kg
CYP2C9
  inhibition at 5 min, 10 µM: -16%
